We go through 14 compounds from US20230000842A1, “METHODS OF TREATING CARTILAGE DISORDERS THROUGH INHIBITION OF CLK AND DYRK” (SAMUMED, LLC, priority 2019, published 2023).

Experiment [1] deals with primary human mesenchymal stem cells (hMSCs). The experiment can be described thus: Chondrogenesis screening using primary human mesenchymal stem cells. It is filed as cell-based. The note with it: Homo sapiens, Mesenchymal stem cells, hMSC chondrogenesis; for Emax: maximum activity relative to TGF-β3 (10 ng/mL) positive control, read-out: Max. Activity as % TGF-β3 activity; for EC50: concentration required to induce 50% levels of chondrogenesis with TGF-β3 as positive control, read-out: Conc (nM) of 50% TGF-β3 activity. From the text:
Representative compounds were screened using primary human mesenchymal stem cells (hMSCs) to determine their ability to induce chondrogenesis (process by which cartilage is developed).
Human Mesenchymal Stem Cell Culture: Primary human mesenchymal stem cells (hMSCs) were purchased from Lonza (Walkersville, Md.) and expanded in Mesenchymal Stem Cell Growth Media (Lonza). Cells between passage 3 and 6 were used for the experiments.
Area of nodules in each well was normalized to the average of 3 DMSO treated wells on the same plate using Excel (Microsoft Inc.). The normalized averages (fold change over DMSO) of 2 or 3 replicate wells for each compound concentration were calculated. Due to solubility limitations of some of the compounds, curve fitting was incomplete leading to inaccurate EC50 determinations.
Using TGF-β3 as a positive control, the concentration of representative compounds required to induce 50% levels of chondrogenesis is reported. In addition, the maximum activity of each compound and the respective dose that each compound reached maximum chondrogenesis activity is reported.

Experiment [2] deals with CLK3 kinase (Homo sapiens, UniProt P49761). The experiment can be described thus: CLK3 kinase activity assay (Z-lyte FRET).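 Also: kinase activity read as coumarin/fluorescein emission ratio by FRET, unphosphorylated peptide as 0% and phosphorylated peptide as 100% control, values from non-linear regression of dose-response curves.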 It is filed as biochemical. To be noted: Z-lyte Ser/Thr 18 peptide, 156 μM ATP, 1 h at room temperature.
CLK3 kinase, sequence (P49761 whole entry): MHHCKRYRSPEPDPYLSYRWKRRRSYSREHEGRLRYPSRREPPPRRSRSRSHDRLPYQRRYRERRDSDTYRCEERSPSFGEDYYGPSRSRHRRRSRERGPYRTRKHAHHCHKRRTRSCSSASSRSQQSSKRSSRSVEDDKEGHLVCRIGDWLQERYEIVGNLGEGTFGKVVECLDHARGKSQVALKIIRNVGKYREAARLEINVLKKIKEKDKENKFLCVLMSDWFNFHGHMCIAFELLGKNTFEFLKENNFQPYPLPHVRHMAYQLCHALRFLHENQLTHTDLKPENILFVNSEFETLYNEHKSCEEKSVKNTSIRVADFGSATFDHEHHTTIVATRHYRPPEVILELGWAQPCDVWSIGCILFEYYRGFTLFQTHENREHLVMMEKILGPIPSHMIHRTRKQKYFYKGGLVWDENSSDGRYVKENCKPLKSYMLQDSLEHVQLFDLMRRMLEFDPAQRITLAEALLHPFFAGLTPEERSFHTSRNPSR
Description: (§1) This is a non-radioactive assay using fluorescence resonance energy transfer (FRET) between coumarin and fluorescein to detect kinase activity which is represented as a ratio of coumarin emission/fluorescein emission.
The mixture was allowed to incubate with the representative compounds for one hour at room temperature. All reactions were performed in duplicate. Unphosphorylated (“0% Control”) and phosphorylated (“100% control”) forms of Ser/Thr 18 served as control reactions. Additionally, an 11-point dose-response curve of Staurosporine (1 μM top) was run to serve as a positive compound control.
(§2) After incubation, Development Reagent A was diluted in Development Buffer then added to the reaction and allowed to further incubate for one hour at room temperature.
(§3) Dose-response curves were generated and inhibitory concentration (IC50) values were calculated using non-linear regression curve fit in the Dotmatics' Studies Software (Bishops Stortford, UK).
In experiment [3] the target is CLK2 kinase (Homo sapiens, UniProt P49760). Put plainly: CLK2 kinase activity assay (Z-lyte FRET).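 Also: FRET read-out as coumarin to fluorescein emission ratio, unphosphorylated peptide as 0% and phosphorylated peptide as 100% controls, duplicate reactions, non-linear regression fit of dose-response curves.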 To be noted: Z-lyte Ser/Thr 6 peptide, 60 μM ATP, 1 h at room temperature. In kind it is biochemical.
CLK2 kinase, sequence (P49760 whole entry): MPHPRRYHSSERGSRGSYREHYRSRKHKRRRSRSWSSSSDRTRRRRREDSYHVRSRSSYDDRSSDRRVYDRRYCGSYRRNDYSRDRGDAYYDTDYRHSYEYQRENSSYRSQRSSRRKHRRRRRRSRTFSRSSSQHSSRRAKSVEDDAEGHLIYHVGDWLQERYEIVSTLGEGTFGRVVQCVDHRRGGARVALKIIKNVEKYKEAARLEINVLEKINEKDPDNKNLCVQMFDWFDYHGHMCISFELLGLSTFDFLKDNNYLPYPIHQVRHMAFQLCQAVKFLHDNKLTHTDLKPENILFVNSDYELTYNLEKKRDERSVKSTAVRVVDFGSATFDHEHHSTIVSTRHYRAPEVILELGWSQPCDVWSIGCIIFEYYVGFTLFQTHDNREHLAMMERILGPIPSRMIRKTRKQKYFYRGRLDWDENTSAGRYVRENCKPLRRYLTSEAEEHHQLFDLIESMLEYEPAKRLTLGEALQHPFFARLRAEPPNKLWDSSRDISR
Description: as §1
The mixture was allowed to incubate with the representative compounds for one hour at room temperature. All reactions were performed in duplicate. Unphosphorylated (“0% Control”) and phosphorylated (“100% control”) forms of Ser/Thr 6 served as control reactions. Additionally, an 11-point dose-response curve of Staurosporine (1 μM top) was run to serve as a positive compound control.
as §2, §3
The test system of experiment [4] is Wnt pathway activity (SW480 colon carcinoma cells stably expressing the Sp5-Luc reporter). Put plainly: Wnt pathway activity screening assay (Sp5-Luc reporter gene assay). The note with it: Homo sapiens, SW480, Table 4; SW480 cells stably expressing Sp5-Luc reporter, 10-point dose-response from 10 μM, 36 to 48 hours. A general note: Reporter assays use an easily measured gene product as a stand-in for the process of interest.

In the case of `Fc1ccccc1-c1cncc2[nH]c(-c3n[nH]c4ncc(-c5cn[nH]c5)cc34)cc12` [compound 339], the Emax in experiment [1] was 51.1%. The EC50 in experiment [2] was determined as 99 nM; in experiment [3], 7 nM; in experiment [4], 375 nM.
Regarding `CC(C)CC(=O)Nc1cncc(-c2ccc3[nH]nc(-c4nc5c(-c6cccs6)cncc5[nH]4)c3c2)c1` [compound 256], the Emax in experiment [1] was 53.3%. The EC50 was found to be 62 nM in experiment [2], 9 nM in experiment [3] and 0.1 nM in experiment [4].
Take `CC(C)(C)CC(=O)Nc1cncc(-c2cc3c(-c4cc5cnccc5[nH]4)n[nH]c3cn2)c1` [compound 425]: the EC50 was found to be 10 nM in experiment [1], 56 nM in experiment [2], 3 nM in experiment [3] and 1890 nM in experiment [4]. Besides, in experiment [1], the Emax was determined as 58.8%.
For `CN(C)CCNc1cc(F)cc(-c2cccc3[nH]c(-c4n[nH]c5cnc(-c6cncc(O)c6)cc45)cc23)c1` [compound 515], in that order: 10 nM, 109 nM, 5 nM, 405 nM and 66.4%.
In the same order, the values of `CCC(=O)Nc1cncc(-c2cnc3[nH]nc(-c4cc5c(-c6cccnc6)cccc5[nH]4)c3c2)c1` [compound 348] are 10 nM, 538 nM, 3 nM, 180 nM and 671%.
Turning to `COc1ccc(NC(=O)c2n[nH]c3ccc(-c4cncc(CN5CCC(F)(F)C5)c4)cc23)cn1` [compound 72], the EC50 worked out at 100 nM in experiment [1], 22 nM in experiment [2], 2 nM in experiment [3] and 5 nM in experiment [4]. The Emax in experiment [1] was found to be 72.2%.
On to `FC1(F)CCN(Cc2cncc(-c3cnc4[nH]nc(-c5cc6c(-c7ccncc7)cccc6[nH]5)c4c3)c2)C1` [compound 401], for which the Emax in experiment [1] amounted to 29.2%. Moreover, the EC50 in experiment [2] turned out to be 895 nM; in experiment [3] it was 15 nM; in experiment [4], 708 nM.
With `CC(C)Nc1cncc(-c2cnc3[nH]nc(-c4cc5c(-c6ccccc6F)nccc5[nH]4)c3c2)c1` [compound 332], the EC50 in experiment [1] amounted to 10 nM; in experiment [2], 196 nM; in experiment [3], 6 nM; in experiment [4], 435 nM. In experiment [1], the Emax is 75.8%.
For `FC1(F)CCN(Cc2cncc(-c3ccc4[nH]nc(-c5cc6c(-c7ccccn7)cccc6[nH]5)c4n3)c2)C1` [compound 409], in that order: 10 nM, 142 nM, 5 nM, 432 nM and 81.9%.
In the same order, the values of `CC(C)Nc1cncc(-c2ccc3[nH]nc(-c4nc5c(-c6cccnc6)nccc5[nH]4)c3n2)c1` [compound 193] are 10 nM, 322 nM, 2 nM, 981 nM and 54.4%.
Regarding `CCC(=O)Nc1cncc(-c2ccc3[nH]nc(-c4cc5c(-c6cccc(F)c6)ccnc5[nH]4)c3c2)c1` [compound 304], in experiment [1], the Emax is 167%. For the same compound, the EC50 in experiment [2] stood at 21 nM; in experiment [3], 16 nM; in experiment [4], 13.2 nM.
On to `c1cncc(-c2ccc3[nH]nc(-c4cc5cnccc5[nH]4)c3c2)c1` [compound 410], for which the Emax in experiment [1] worked out at 342%. Also, the EC50 in experiment [2] came to 15 nM; in experiment [3], 1 nM; in experiment [4], 40 nM.
For the compound `CC(C)CC(=O)Nc1cncc(-c2ccc3[nH]nc(-c4nc5c(N6CCN(C)CC6)cccc5[nH]4)c3c2)c1` [compound 217], the figures for the EC50 in experiment [2], in experiment [3] and in experiment [4] were 40 nM, 3 nM and 268 nM, respectively.
In the case of `O=C(Nc1ccnnc1)c1n[nH]c2ccc(-c3cccnc3)cc12` [compound 64], the EC50 in experiment [2] is 21 nM; in experiment [3], 1 nM; in experiment [4] it was 106 nM.
